Key:
[1] = test system: MDA-MB-231 xenograft tumors; experiment: Xenograft tumor study with drug refilling; format: in vivo, J:Nu mice; conditions: 120 μg doxorubicin per animal IV (FIG. 5C)
Description: All animal experiments were performed according to established animal protocols. Tumors were created by injecting 10^6 MDA-MB-231 cells (American Type Culture Collection, VA) combined with Matrigel (BD Biosciences, CA) to a total volume of 200 μL (100 μL PBS and 100 μL Matrigel) into the hind limbs of 8 week old J:Nu (Foxn1^nu/Foxn1^nu) mice (Jackson Labs, ME). 35 days following tumor inoculation tumors were injected with alginate gels. 20 mg/mL alginate conjugated to DNA (thioT-SH or unconjugated) was mixed with doxorubicin (1.6 mg drug per mL of gel), then crosslinked with 4% wt/v CaSO4 (1.22 M) and then 50 μL of gel were injected into tumors with a 23-gauge needle. 2, 3, 4, and 5 weeks after initial tumoral gel injection, mice were injected retro-orbitally with 100 μL 0.5% DNA-conjugated alginate carrying doxorubicin (5% oxidized alginate, thioA-SH, Dye-750, 160 μg Dox-hydrazide=120 μg Dox). Throughout the study, tumor area was measured twice per week with digital calipers in two dimensions and the product of the two dimensional values was used to approximate tumor area. […]
The breast cancer MDA-MB-231 model was chosen because it is a slow-growing tumor, widely used to test chemotherapeutic strategies. […] The ability of targeted therapy to reduce tumor size was assessed by monitoring the change in tumor size in the three days following each IV administration. […]

[2] = test system: DNA-conjugated calcium-alginate gels; experiment: In vitro binding of fluorescent oligonucleotides to DNA-conjugated calcium alginate gels (FIG. 2); conditions: alginate-(T)20 calcium gel; phosphate buffer with 1 mM calcium chloride

Q: How did the “change in tumor size in the three days following each IV administration” value [1] turn out when `COc1cccc2c1C(=O)c1c(O)c3c(c(O)c1C2=O)C[C@@](O)(C(=O)CO)C[C@@H]3O[C@H]1C[C@H](N)[C@H](O)[C@H](C)O1` [doxorubicin] was run?
A: continued to grow

Q: Which “binding of fluorescently-labeled oligonucleotides to gel surface” value [2] does the source give for AAAAAAAAAAAAAAAAAAAA-FAM [(A)20] here?
A: bound to the gel surface in a sequence-specific manner

Q: How did the “binding of fluorescently-labeled oligonucleotides to gel surface” value [2] turn out when TTTTTTTTTTTTTTTTTTTT-FAM [(T)20] was run?
A: little binding
